Measured values: patent publication US4749690A, “Treatment of allergy with thymopentin” (Ortho Pharmaceutical Corporation, priority 1986, dated 1988)
Entries after “also recorded” stand apart in the source; their conditions may differ. No end group written: not given here.

Experiments:
[1] = tested on: patients with Ragweed Hay Fever; test: double-blind placebo-controlled phase II study, patient-diary hay fever symptom counts; type: in vivo, human; settings: for Average # Weekly Symptoms, Severe / Average # Weekly Symptoms, Total / Average # Weekly Symptoms, Mild: average per subject over weeks 3-12; for hay fever symptoms compared with placebo group (in words): 12 weeks
Excerpt: Each group was given a subcutaneous injection three times a week and an intravenous injection once a week; in the first group the first injection was thymopentin while the second was placebo, in the second group the first injection was placebo and the second thymopentin, while in the third group both injections were placebo. […] The application of the present invention is illustrated by the clinical study on thymopentin in the treatment of patients with Ragweed Hay Fever given in the Example which follows. Thirty (30) patients with a proven history of ragweed hay fever, who fulfill all of the inclusion criteria and none of the exclusion criteria, were enrolled in this single site study. This invention was a placebo-controlled phase II safety and efficacy study of Thymopentin (TP5) in the treatment of patients with Ragwood Hay Fever. Thirty (30) patients were assigned to either TP5 or placebo according to a double blind randomization schedule. Ten (10) patients were assigned to each of three (3) treatment groups described as follows. Group 1 received 1.0 ml TP5 (50 mg/ml) subcutaneously three (3) times per week and 5.0 ml placebo intravenously once weekly for twelve (12) weeks. Group 2 received 1.0 ml placebo subcutaneously three (3) times per week and 5.0 ml TP5 (20 mg/ml) intravenously once weekly for twelve (12) weeks. Group 3 received 1.0 ml placebo subcutaneously three (3) times per week and 5.0 ml placebo intravenously once weekly for twelve (12) weeks. 1. Each patient received subcutaneous injections three (3) times per week and one intravenous injection per week for twelve weeks, according to the group randomization schedule described above. 2. All patients received a diary in which allergy medication (chlortrimeton) taken during the course of the study and symptoms related to Ragweed Hay Fever were documented. Patients received specific instructions pertaining to continued maintenance of their symptom and medication diaries. The diaries were reviewed weekly and returned upon termination of treatment. Each of the thirty subjects recorded twice daily the occurrence of five symptoms using the mutually exclusive scores "none", "mild", and "severe". The efficacy of treatment was determined by comparison of the average weekly number of mild and severe symptoms per subject. In one analysis, a score was created for each subject based upon the number of times certain symptoms were noted over the ten-week period of study. Each occurrence of a mild or severe symptom was scored as "1" and the average weekly score over the ten weeks for which data were collected was computed for each subject. Pair-wise comparisons were made among the three groups using a standard t-test. […] A more detailed analysis used a repeated measures analysis of variance, in which the total weekly symptoms were compared on a week-by-week basis. The results are presented in Table II and graphically in FIGS. 1 through 3. This analysis indicates high significance among the three groups with respect to severe symptoms and all symptoms.

T lymphocytes = settings: background art; cited from earlier work

## RKDVY [TP5, H-ARG-LYS-ASP-VAL-TYR-OH]
[1]; Group 1 (TP5 sc)
  Average number of symptoms per week per subject, Cough Mild: 0.14
  Average number of symptoms per week per subject, Cough Sev.: 0.02
  Average number of symptoms per week per subject, Itchy Eyes Mild: 2.45
  Average number of symptoms per week per subject, Itchy Eyes Sev.: 0.18
  Average number of symptoms per week per subject, Red Eyes Mild: 1.12
  Average number of symptoms per week per subject, Red Eyes Sev.: 0.12
  Average number of symptoms per week per subject, Runny Nose Mild: 3.51
  Average number of symptoms per week per subject, Runny Nose Sev.: 1.86
  Average number of symptoms per week per subject, Sneezing Mild: 2.97
  Average number of symptoms per week per subject, Sneezing Sev.: 0.46
[1]; Group 1, TP5 50 mg s.c. 3x/week, p vs placebo .1382
  Average # Weekly Symptoms, Severe: 2.64
[1]; Group 1, TP5 50 mg s.c. 3x/week, p vs placebo .1394
  Average # Weekly Symptoms, Total: 12.84
[1]; Group 1, TP5 50 mg s.c. 3x/week, p vs placebo .3059
  Average # Weekly Symptoms, Mild: 10.20
[1]; Group 1, thymopentin 50 mg subcutaneously three times per week, listed as Thymopentin
  hay fever symptoms compared with placebo group (in words): the difference from placebo is not statistically significant; also recorded: decreasing the number of severe hay fever symptoms
[1]; Group 1, thymopentin 50 mg subcutaneously three times per week, listed as thymopentin
  hay fever symptoms compared with placebo group (in words): experienced fewer symptoms than group 3; also recorded: effective regimens to palliate allergic symptoms
[1]; Group 1 TP5 s.c., week 3
  Total Mild & Severe Symptoms Combined, average weekly number: 5.78
  Total Mild Symptoms, average weekly number: 5.22
  Total Severe Symptoms, average weekly number: 0.56
[1]; Group 1 TP5 s.c., week 4
  Total Mild & Severe Symptoms Combined, average weekly number: 9.22
  Total Mild Symptoms, average weekly number: 8.11
  Total Severe Symptoms, average weekly number: 1.11
[1]; Group 1 TP5 s.c., week 5
  Total Mild & Severe Symptoms Combined, average weekly number: 9.78
  Total Mild Symptoms, average weekly number: 9.00
  Total Severe Symptoms, average weekly number: 0.78
[1]; Group 1 TP5 s.c., week 6
  Total Mild & Severe Symptoms Combined, average weekly number: 11.56
  Total Mild Symptoms, average weekly number: 10.11
  Total Severe Symptoms, average weekly number: 1.44
[1]; Group 1 TP5 s.c., week 7
  Total Mild & Severe Symptoms Combined, average weekly number: 14.44
  Total Mild Symptoms, average weekly number: 13.11
  Total Severe Symptoms, average weekly number: 1.33
[1]; Group 1 TP5 s.c., week 8
  Total Mild & Severe Symptoms Combined, average weekly number: 16.33
  Total Mild Symptoms, average weekly number: 14.44
  Total Severe Symptoms, average weekly number: 1.89
[1]; Group 1 TP5 s.c., week 9
  Total Mild & Severe Symptoms Combined, average weekly number: 19.67
  Total Mild Symptoms, average weekly number: 18.56
  Total Severe Symptoms, average weekly number: 1.11
[1]; Group 1 TP5 s.c., week 10
  Total Mild & Severe Symptoms Combined, average weekly number: 17.78
  Total Mild Symptoms, average weekly number: 15.22
  Total Severe Symptoms, average weekly number: 2.56
[1]; Group 1 TP5 s.c., week 11
  Total Mild & Severe Symptoms Combined, average weekly number: 16.89
  Total Mild Symptoms, average weekly number: 13.11
  Total Severe Symptoms, average weekly number: 3.78
[1]; Group 1 TP5 s.c., week 12
  Total Mild & Severe Symptoms Combined, average weekly number: 5.89
  Total Mild Symptoms, average weekly number: 5.67
  Total Severe Symptoms, average weekly number: 0.22
[1]; Group 2 (TP5 iv)
  Average number of symptoms per week per subject, Cough Mild: 0.48
  Average number of symptoms per week per subject, Cough Sev.: 0.03
  Average number of symptoms per week per subject, Itchy Eyes Mild: 0.84
  Average number of symptoms per week per subject, Itchy Eyes Sev.: 0.25
  Average number of symptoms per week per subject, Red Eyes Mild: 0.75
  Average number of symptoms per week per subject, Red Eyes Sev.: 0.08
  Average number of symptoms per week per subject, Runny Nose Mild: 3.03
  Average number of symptoms per week per subject, Runny Nose Sev.: 0.80
  Average number of symptoms per week per subject, Sneezing Mild: 2.33
  Average number of symptoms per week per subject, Sneezing Sev.: 0.61
[1]; Group 2, TP5 100 mg i.v. once weekly, p vs placebo .0145
  Average # Weekly Symptoms, Total: 9.20
[1]; Group 2, TP5 100 mg i.v. once weekly, p vs placebo .0232
  Average # Weekly Symptoms, Severe: 1.77
[1]; Group 2, TP5 100 mg i.v. once weekly, p vs placebo .0257
  Average # Weekly Symptoms, Mild: 7.43
[1]; Group 2, thymopentin 100 mg intravenously once per week, listed as Thymopentin
  hay fever symptoms compared with placebo group (in words): statistically significant difference from group 3; also recorded: decreasing the number of severe hay fever symptoms
[1]; Group 2, thymopentin 100 mg intravenously once per week, listed as thymopentin
  hay fever symptoms compared with placebo group (in words): This difference was statistically significant for group 2; also recorded: effective regimens to palliate allergic symptoms
[1]; Group 2 TP5 i.v., week 3
  Total Mild & Severe Symptoms Combined, average weekly number: 5.43
  Total Mild Symptoms, average weekly number: 4.43
  Total Severe Symptoms, average weekly number: 1.0
[1]; Group 2 TP5 i.v., week 4
  Total Mild & Severe Symptoms Combined, average weekly number: 8.86
  Total Mild Symptoms, average weekly number: 8.43
  Total Severe Symptoms, average weekly number: 0.43
[1]; Group 2 TP5 i.v., week 5
  Total Mild & Severe Symptoms Combined, average weekly number: 7.00
  Total Mild Symptoms, average weekly number: 6.71
  Total Severe Symptoms, average weekly number: 0.29
[1]; Group 2 TP5 i.v., week 6
  Total Mild & Severe Symptoms Combined, average weekly number: 10.86
  Total Mild Symptoms, average weekly number: 9.29
  Total Severe Symptoms, average weekly number: 1.57
[1]; Group 2 TP5 i.v., week 7
  Total Mild & Severe Symptoms Combined, average weekly number: 9.00
  Total Mild Symptoms, average weekly number: 8.00
  Total Severe Symptoms, average weekly number: 1.00
[1]; Group 2 TP5 i.v., week 8
  Total Mild & Severe Symptoms Combined, average weekly number: 11.00
  Total Mild Symptoms, average weekly number: 8.57
  Total Severe Symptoms, average weekly number: 2.43
[1]; Group 2 TP5 i.v., week 9
  Total Mild & Severe Symptoms Combined, average weekly number: 8.14
  Total Mild Symptoms, average weekly number: 7.71
  Total Severe Symptoms, average weekly number: 0.43
[1]; Group 2 TP5 i.v., week 10
  Total Mild & Severe Symptoms Combined, average weekly number: 5.14
  Total Mild Symptoms, average weekly number: 4.71
  Total Severe Symptoms, average weekly number: 0.43
[1]; Group 2 TP5 i.v., week 11
  Total Mild & Severe Symptoms Combined, average weekly number: 5.43
  Total Mild Symptoms, average weekly number: 5.14
  Total Severe Symptoms, average weekly number: 0.29
[1]; Group 2 TP5 i.v., week 12
  Total Mild & Severe Symptoms Combined, average weekly number: 1.71
  Total Mild Symptoms, average weekly number: 1.57
  Total Severe Symptoms, average weekly number: 0.14
[1]; double-blind study, route not specified
  alleviating the symptoms of allergic rhinitis compared to placebo (in words): statistically significant compared to placebo
[1]; general statement
  safety (in words): very safe drug
T lymphocytes
  differentiation of T lymphocytes (in words): selectively stimulate the differentiation of T lymphocytes
